This is an account of results in ChEMBL document CHEMBL4706643 (J Med Chem, 2021).

In this experiment the test system is Hepatitis B virus. As to the kind of experiment: Antiviral activity against HBV infected in human HepG2-NTCP cells assessed as reduction in HBeAg secretion cells inoculated with virus for 4 hrs at room temperature and 37 degree C for 24 hrs followed inoculum changed with PMM medium for every 2 days until day 5 post infection by ELISA. It counts as functional, organism-based. On the technique in general: An ELISA detects its analyte on a solid surface through an enzyme-linked reagent.

SMILES strings stand for the structures.

`CC[C@@H]1NC(=O)[C@H]([C@@H]2O[C@@H](Sc3cccc(OCc4cccc(F)c4)c3)C[C@H]2C)N(C)C(=O)[C@H](C(C)C)N(C)C(=O)[C@H](CC(C)C)N(C)C(=O)[C@H](CC(C)C)N(C)C(=O)[C@@H](C)NC(=O)[C@H](C)NC(=O)[C@H](CC(C)C)N(C)C(=O)[C@H](C(C)C)NC(=O)[C@H](CC(C)C)N(C)C(=O)CN(C)C1=O`: the IC50 is 197 nM.

Consider `CC[C@@H]1NC(=O)[C@H]([C@@H]2O[C@@H](Sc3ccc(CN4CCN(C)CC4)cc3)C[C@H]2C)N(C)C(=O)[C@H](C(C)C)N(C)C(=O)[C@H](CC(C)C)N(C)C(=O)[C@H](CC(C)C)N(C)C(=O)[C@@H](C)NC(=O)[C@H](C)NC(=O)[C@H](CC(C)C)N(C)C(=O)[C@H](C(C)C)NC(=O)[C@H](CC(C)C)N(C)C(=O)CN(C)C1=O`, for which the half-inhibitory concentration (IC50) stood at 1540 nM.

Take `CC[C@@H]1NC(=O)[C@H]([C@@H]2O[C@@H](Sc3ccc(N4CCOCC4)cc3)C[C@H]2C)N(C)C(=O)[C@H](C(C)C)N(C)C(=O)[C@H](CC(C)C)N(C)C(=O)[C@H](CC(C)C)N(C)C(=O)[C@@H](C)NC(=O)[C@H](C)NC(=O)[C@H](CC(C)C)N(C)C(=O)[C@H](C(C)C)NC(=O)[C@H](CC(C)C)N(C)C(=O)CN(C)C1=O`: the IC50 was 1270 nM.

With `CC[C@@H]1NC(=O)[C@H]([C@@H]2O[C@@H](Sc3c(OC)cccc3OC)C[C@H]2C)N(C)C(=O)[C@H](C(C)C)N(C)C(=O)[C@H](CC(C)C)N(C)C(=O)[C@H](CC(C)C)N(C)C(=O)[C@@H](C)NC(=O)[C@H](C)NC(=O)[C@H](CC(C)C)N(C)C(=O)[C@H](C(C)C)NC(=O)[C@H](CC(C)C)N(C)C(=O)CN(C)C1=O`, the IC50 turned out to be 2170 nM.

For `CC[C@@H]1NC(=O)[C@H]([C@@H]2O[C@@H](Sc3ccc(OCc4ccccc4)cc3)C[C@H]2C)N(C)C(=O)[C@H](C(C)C)N(C)C(=O)[C@H](CC(C)C)N(C)C(=O)[C@H](CC(C)C)N(C)C(=O)[C@@H](C)NC(=O)[C@H](C)NC(=O)[C@H](CC(C)C)N(C)C(=O)[C@H](C(C)C)NC(=O)[C@H](CC(C)C)N(C)C(=O)CN(C)C1=O`, the IC50 came to 256 nM.

On to `C/C=C/C[C@@H](C)[C@@H](O)[C@H]1C(=O)N[C@@H](CC)C(=O)N(C)CC(=O)N(C)[C@@H](CC(C)C)C(=O)N[C@@H](C(C)C)C(=O)N(C)[C@@H](CC(C)C)C(=O)N[C@@H](C)C(=O)N[C@H](C)C(=O)N(C)[C@@H](CC(C)C)C(=O)N(C)[C@@H](CC(C)C)C(=O)N(C)[C@@H](C(C)C)C(=O)N1C` [CYCLOSPORINE], for which the IC50 is 5780 nM.

On to `CC[C@@H]1NC(=O)[C@H]([C@@H]2O[C@@H](Sc3cccc(OCC4CCOCC4)c3)C[C@H]2C)N(C)C(=O)[C@H](C(C)C)N(C)C(=O)[C@H](CC(C)C)N(C)C(=O)[C@H](CC(C)C)N(C)C(=O)[C@@H](C)NC(=O)[C@H](C)NC(=O)[C@H](CC(C)C)N(C)C(=O)[C@H](C(C)C)NC(=O)[C@H](CC(C)C)N(C)C(=O)CN(C)C1=O`, for which the IC50 came to 249 nM.

Regarding `CC[C@@H]1NC(=O)[C@H]([C@@H]2O[C@@H](Sc3ccc(C)cc3)C[C@H]2C)N(C)C(=O)[C@H](C(C)C)N(C)C(=O)[C@H](CC(C)C)N(C)C(=O)[C@H](CC(C)C)N(C)C(=O)[C@@H](C)NC(=O)[C@H](C)NC(=O)[C@H](CC(C)C)N(C)C(=O)[C@H](C(C)C)NC(=O)[C@H](CC(C)C)N(C)C(=O)CN(C)C1=O`, the IC50 turned out to be 281 nM.

For `CC[C@@H]1NC(=O)[C@H]([C@@H]2OC(OCCC(=O)O)C[C@H]2C)N(C)C(=O)[C@H](C(C)C)N(C)C(=O)[C@H](CC(C)C)N(C)C(=O)[C@H](CC(C)C)N(C)C(=O)[C@@H](C)NC(=O)[C@H](C)NC(=O)[C@H](CC(C)C)N(C)C(=O)[C@H](C(C)C)NC(=O)[C@H](CC(C)C)N(C)C(=O)CN(C)C1=O` (some centres undefined), the IC50 was above 10000 nM.

Turning to `CC[C@@H]1NC(=O)[C@H]([C@@H]2OC(OCC(=O)OC)C[C@H]2C)N(C)C(=O)[C@H](C(C)C)N(C)C(=O)[C@H](CC(C)C)N(C)C(=O)[C@H](CC(C)C)N(C)C(=O)[C@@H](C)NC(=O)[C@H](C)NC(=O)[C@H](CC(C)C)N(C)C(=O)[C@H](C(C)C)NC(=O)[C@H](CC(C)C)N(C)C(=O)CN(C)C1=O` (some centres undefined), the IC50 was above 10000 nM.

Regarding `CC[C@@H]1NC(=O)[C@H]([C@@H]2O[C@@H](Sc3cccc(OCC4CC4)c3)C[C@H]2C)N(C)C(=O)[C@H](C(C)C)N(C)C(=O)[C@H](CC(C)C)N(C)C(=O)[C@H](CC(C)C)N(C)C(=O)[C@@H](C)NC(=O)[C@H](C)NC(=O)[C@H](CC(C)C)N(C)C(=O)[C@H](C(C)C)NC(=O)[C@H](CC(C)C)N(C)C(=O)CN(C)C1=O`, the IC50 came to 365 nM.

Take `CC[C@@H]1NC(=O)[C@H]([C@@H]2O[C@@H](Sc3cccc(OCc4ccccc4F)c3)C[C@H]2C)N(C)C(=O)[C@H](C(C)C)N(C)C(=O)[C@H](CC(C)C)N(C)C(=O)[C@H](CC(C)C)N(C)C(=O)[C@@H](C)NC(=O)[C@H](C)NC(=O)[C@H](CC(C)C)N(C)C(=O)[C@H](C(C)C)NC(=O)[C@H](CC(C)C)N(C)C(=O)CN(C)C1=O`: the IC50 was 318 nM.

Regarding `CC[C@@H]1NC(=O)[C@H]([C@@H]2O[C@H](Sc3ccccc3)C[C@H]2C)N(C)C(=O)[C@H](C(C)C)N(C)C(=O)[C@H](CC(C)C)N(C)C(=O)[C@H](CC(C)C)N(C)C(=O)[C@@H](C)NC(=O)[C@H](C)NC(=O)[C@H](CC(C)C)N(C)C(=O)[C@H](C(C)C)NC(=O)[C@H](CC(C)C)N(C)C(=O)CN(C)C1=O`, the IC50 was 5330 nM.

For `CC[C@@H]1NC(=O)[C@H]([C@@H]2OC(OCCC(=O)OC)C[C@H]2C)N(C)C(=O)[C@H](C(C)C)N(C)C(=O)[C@H](CC(C)C)N(C)C(=O)[C@H](CC(C)C)N(C)C(=O)[C@@H](C)NC(=O)[C@H](C)NC(=O)[C@H](CC(C)C)N(C)C(=O)[C@H](C(C)C)NC(=O)[C@H](CC(C)C)N(C)C(=O)CN(C)C1=O` (some centres undefined), the concentration for half-maximal inhibition (IC50) amounted to 9260 nM.

For `CC[C@@H]1NC(=O)[C@H]([C@@H]2O[C@@H](Sc3cccc(O)c3)C[C@H]2C)N(C)C(=O)[C@H](C(C)C)N(C)C(=O)[C@H](CC(C)C)N(C)C(=O)[C@H](CC(C)C)N(C)C(=O)[C@@H](C)NC(=O)[C@H](C)NC(=O)[C@H](CC(C)C)N(C)C(=O)[C@H](C(C)C)NC(=O)[C@H](CC(C)C)N(C)C(=O)CN(C)C1=O`, the IC50 amounted to 1650 nM.

Take `CC[C@@H]1NC(=O)[C@H]([C@@H]2O[C@@H](Sc3cccc(OCc4ccncc4)c3)C[C@H]2C)N(C)C(=O)[C@H](C(C)C)N(C)C(=O)[C@H](CC(C)C)N(C)C(=O)[C@H](CC(C)C)N(C)C(=O)[C@@H](C)NC(=O)[C@H](C)NC(=O)[C@H](CC(C)C)N(C)C(=O)[C@H](C(C)C)NC(=O)[C@H](CC(C)C)N(C)C(=O)CN(C)C1=O`: the IC50 is 382 nM.

On to `CC[C@@H]1NC(=O)[C@H]([C@@H]2O[C@@H](Sc3cccc(OCc4ccccn4)c3)C[C@H]2C)N(C)C(=O)[C@H](C(C)C)N(C)C(=O)[C@H](CC(C)C)N(C)C(=O)[C@H](CC(C)C)N(C)C(=O)[C@@H](C)NC(=O)[C@H](C)NC(=O)[C@H](CC(C)C)N(C)C(=O)[C@H](C(C)C)NC(=O)[C@H](CC(C)C)N(C)C(=O)CN(C)C1=O`, for which the IC50 stood at 317 nM.

For the compound `CC[C@@H]1NC(=O)[C@H]([C@@H]2O[C@@H](Sc3cc(Cl)cc(OCc4ccc(F)cc4)c3)C[C@H]2C)N(C)C(=O)[C@H](C(C)C)N(C)C(=O)[C@H](CC(C)C)N(C)C(=O)[C@H](CC(C)C)N(C)C(=O)[C@@H](C)NC(=O)[C@H](C)NC(=O)[C@H](CC(C)C)N(C)C(=O)[C@H](C(C)C)NC(=O)[C@H](CC(C)C)N(C)C(=O)CN(C)C1=O`, the IC50 is 417 nM.

For `CC[C@@H]1NC(=O)[C@H]([C@@H]2O[C@@H](Sc3cc(OC)cc(OCc4ccc(F)cc4)c3)C[C@H]2C)N(C)C(=O)[C@H](C(C)C)N(C)C(=O)[C@H](CC(C)C)N(C)C(=O)[C@H](CC(C)C)N(C)C(=O)[C@@H](C)NC(=O)[C@H](C)NC(=O)[C@H](CC(C)C)N(C)C(=O)[C@H](C(C)C)NC(=O)[C@H](CC(C)C)N(C)C(=O)CN(C)C1=O`, the 50% inhibitory concentration (IC50) is 216 nM.

Take `CC[C@@H]1NC(=O)[C@H]([C@@H]2OCC[C@H]2C)N(C)C(=O)[C@H](C(C)C)N(C)C(=O)[C@H](CC(C)C)N(C)C(=O)[C@H](CC(C)C)N(C)C(=O)[C@@H](C)NC(=O)[C@H](C)NC(=O)[C@H](CC(C)C)N(C)C(=O)[C@H](C(C)C)NC(=O)[C@H](CC(C)C)N(C)C(=O)CN(C)C1=O`: the IC50 is above 10000 nM.

Take `CC[C@@H]1NC(=O)[C@H]([C@@H]2OC(OC)C[C@H]2C)N(C)C(=O)[C@H](C(C)C)N(C)C(=O)[C@H](CC(C)C)N(C)C(=O)[C@H](CC(C)C)N(C)C(=O)[C@@H](C)NC(=O)[C@H](C)NC(=O)[C@H](CC(C)C)N(C)C(=O)[C@H](C(C)C)NC(=O)[C@H](CC(C)C)N(C)C(=O)CN(C)C1=O` (some centres undefined): the IC50 worked out at 13500 nM.

Take `CC[C@@H]1NC(=O)[C@H]([C@@H]2O[C@@H](Sc3ccc(OC)c(OC)c3)C[C@H]2C)N(C)C(=O)[C@H](C(C)C)N(C)C(=O)[C@H](CC(C)C)N(C)C(=O)[C@H](CC(C)C)N(C)C(=O)[C@@H](C)NC(=O)[C@H](C)NC(=O)[C@H](CC(C)C)N(C)C(=O)[C@H](C(C)C)NC(=O)[C@H](CC(C)C)N(C)C(=O)CN(C)C1=O`: the IC50 worked out at 346 nM.

Consider `CC[C@@H]1NC(=O)[C@H]([C@@H]2O[C@@H](Sc3cccc(OC(C)c4ccccc4)c3)C[C@H]2C)N(C)C(=O)[C@H](C(C)C)N(C)C(=O)[C@H](CC(C)C)N(C)C(=O)[C@H](CC(C)C)N(C)C(=O)[C@@H](C)NC(=O)[C@H](C)NC(=O)[C@H](CC(C)C)N(C)C(=O)[C@H](C(C)C)NC(=O)[C@H](CC(C)C)N(C)C(=O)CN(C)C1=O` (some centres undefined), for which the IC50 came out at 172 nM.

Take `CC[C@@H]1NC(=O)[C@H]([C@@H]2O[C@@H](Sc3cccc(OCc4ccc(F)c(Cl)c4)c3)C[C@H]2C)N(C)C(=O)[C@H](C(C)C)N(C)C(=O)[C@H](CC(C)C)N(C)C(=O)[C@H](CC(C)C)N(C)C(=O)[C@@H](C)NC(=O)[C@H](C)NC(=O)[C@H](CC(C)C)N(C)C(=O)[C@H](C(C)C)NC(=O)[C@H](CC(C)C)N(C)C(=O)CN(C)C1=O`: the IC50 was found to be 335 nM.

As usually defined, the IC50 is the concentration that gives 50% inhibition.
